Experiments:
[1] = test system: OVA-TCR+ CD4+ T cells; test: Analysis of bioavailability: vaccination 3 days before transfer of CFSE-labeled OVA-specific CD4+ cells; design: species or system BALB/c mice; details: mouse, in vivo, iv
Procedure: To test for the presence of bioactive material in the organism after an extended period of time (bioavailability), recipients were treated with pOVA or equimolar amounts of PEGylated peptides 3 days before transfer of CFSE-labeled OVA-specific CD4^+ cells. Proliferation was assessed 6 days after CD4^+ T cell transfer by dilution of CFSE intensity using flow cytometry.
We next addressed the question whether PEGylation leads to an extended half-life (bioavailability) of the antigenic peptide in the organism and whether size and structure of the PEG molecule matter. For this, we tested the degree of proliferation after vaccination with a single i.v. injection of pOVA or conjugates at 3 days prior to transfer of OVA-specific T cells ( Figure 3A ). Six days after cell transfer, splenocytes were isolated and proliferation of OVA-TCR^+ CD4^+ T cells was analyzed according to CFSE content.
Figure 3 Conjugation of pOVA to the macromolecular carrier PEG extends peptide bioavailability. (A) Set-up for analysis of the bioavailability. (B) OVA-specific CD4^+ CFSE-labeled T cells were transferred into BALB/c mice three days after i.v. peptide vaccination with unconjugated pOVA or equimolar amounts of pOVA-PEG conjugates. After 6 days proliferation was assessed by flow cytometry. Cells from spleen and pLN were gated on OVA-TCR^+ CD4^+ T cells. […]

[2] = test system: OVA-TCR+ CD4+ T cells; test: Frequency of OVA-TCR+ CD4+ cells among total CD4+ splenocytes (deletion); assay type: in vivo, BALB/c mice; details: 5 µg i.v. or equimolar, day 6; compared to PBS (PEG20 also to pOVA); n = 5-11
Procedure: (§1) On day 0, 5 × 10^6 CFSE-labeled CD4^+ cells from DO11.10 were adoptively transferred intravenously (i.v.) into syngeneic BALB/c mice. After 24 hours, mice were treated by a single i.v. injection of PBS (control), unconjugated pOVA or equimolar amounts of PEG-conjugated pOVA as indicated. In some experiments, mice were also treated with unconjugated pOVA + 50 µg of lipopolysaccharide (LPS) or pOVA-PEG + 50 µg of LPS. On day 7, splenocytes were isolated, and OVA-TCR^+ CD4^+ T cells were identified by an anti-KJ1.26 antibody, recognizing the OVA-specific TCR on transferred DO11.10 cells.
Besides Treg expansion/induction and anergy, deletion of antigen-specific T effector cells by activation-induced cell death also dampens the immune response. […] Thus, vaccination with this conjugate is more efficient in triggering activation-induced death compared to native peptide or pOVA-PEG-tetramer vaccination where some death might outbalance induced proliferation.
Figure 8 Administration of pOVA-PEG20 reduces the frequency of OVA-TCR^+ CD4^+ T cells among total CD4^+ splenocytes. OVA-specific CD4^+ cells were transferred into BALB/c mice. After 24 h, mice received i.v. PBS (control), 5 µg of pOVA or equimolar amounts of pOVA-PEG conjugates. After 6 days, the frequency of OVA-TCR^+ CD4^+ cells among total CD4^+ T cells was assessed using flow cytometry. […]

[3] = test system: Foxp3+ regulatory T cells among OVA-TCR+ CD4+ T cells; test: Adoptive transfer: Foxp3 expression of OVA-TCR+ CD4+ splenocytes after vaccination; assay type: in vivo, BALB/c mice
Procedure: Cell fixation, permeabilization, and intracellular Foxp3 staining were performed using the eFluor450 anti-mouse Foxp3 (eBioscience) staining set according to manufacturer’s instructions.
On day 0, 5 × 10^6 CFSE-labeled CD4^+ cells from DO11.10 were adoptively transferred intravenously (i.v.) into syngeneic BALB/c mice. After 24 hours, mice were treated by a single i.v. injection of PBS (control), unconjugated pOVA or equimolar amounts of PEG-conjugated pOVA as indicated. […] On day 7, splenocytes were isolated, and OVA-TCR^+ CD4^+ T cells were identified by an anti-KJ1.26 antibody, recognizing the OVA-specific TCR on transferred DO11.10 cells.
To assess the immunomodulatory effect of administration of different types of PEGylated pOVA, we analyzed the expression of Foxp3, the master transcription factor of Tregs and the cytokine profile of antigen-specific T cells upon vaccination.
CFSE-labeled CD4^+ cells from DO11.10 mice were transferred into BALB/c mice. After 24 h, mice received either PBS (control), indicated doses of pOVA or equimolar amounts of PEGylated peptides. After 6 days, Foxp3 expression was assessed using flow cytometry. Spleen cells were gated on OVA-TCR^+ CD4^+ T cells. (A) Representative FACS dot plots of Foxp3 expression following tolerization with pOVA or pOVA-PEG conjugates at a dose of 5 µg (based on peptide amount). (B) Dose response curve in vivo. […]

[4] = test system: OVA-TCR+ CD4+ cells; test: Adoptive transfer with additional LPS (inflammatory conditions); assay type: in vivo, BALB/c mice; details: 5 µg i.v. or equimolar + 50 µg LPS, 6 days
Procedure: as §1
To investigate the impact of inflammatory conditions, we analyzed the effect of lipopolysaccharide (LPS) application on the response of transferred unmanipulated OVA-TCR^+ CD4^+ cells.
24 h after adoptive transfer of OVA-specific CD4^+ T cells, recipients received i.v. PBS (control), 5 µg of pOVA or equimolar amounts of pOVA-PEG conjugates with or without additional LPS. After 6 days, splenocytes were isolated and Foxp3 expression as well as TNF production was assessed by flow cytometry. (A) % TNF^+ cells gated on OVA-specific CD4^+ cells, mean ± SD of data from three independent experiments. (B) % KJ1.26^+ (OVA-specific) splenocytes among total CD4^+ population; mean ± SD of pooled data from three independent experiments. […]

[5] = test system: Foxp3+ Tregs among OVA-TCR+ CD4+ cells; test: Adoptive transfer of Treg-depleted CD4+ cells: de novo induction of Foxp3+ Tregs; assay type: in vivo, BALB/c mice; details: 5 µg i.v. or equimolar, 6 days; spleen, pLN, mLN, livLN; n = 3-7
Procedure: To investigate whether Tregs are expanded or induced de novo, purified CFSE-labeled CD4^+ CD25^- CD103^- T cells from DO11.10 mice were adoptively transferred i.v. into BALB/c mice. After 24 h, mice were treated by a single i.v. injection of PBS (control), unconjugated pOVA at a dose of 5 µg per mouse or equimolar amounts of PEGylated pOVA. On day 7, different lymphatic organs were isolated and OVA-specific CD4^+ T cells were identified by an anti-KJ1.26 antibody.
To investigate whether the increase of Treg frequency following pOVA-PEG20 treatment is due to de novo induction or to expansion of pre-existing Tregs, we transferred Treg-depleted OVA-specific CD4^+ T cells prior to vaccination with pOVA or pOVA-PEG20. […] The frequency of Foxp3^+ Tregs reached similar levels following pOVA and pOVA-PEG20 administration in both spleen and pLN, whereas pOVA-PEG20 increased the Treg frequency in mLN (trend) and the livLN (significant) compared to pOVA.
Figure 5 Administration of pOVA-PEG20 leads to de novo induction of Foxp3^+ Tregs. Treg-depleted CD4^+ T cells from DO11.10 mice were transferred into BALB/c mice 24 h prior to treatment with PBS (control), 5 µg of pOVA or equimolar amounts of pOVA-PEG20. Six days post peptide vaccination, spleen, pLN, mLN and livLN were isolated and Foxp3 expression was analyzed using flow cytometry. […]

[6] = test system: TNF-producing OVA-TCR+ CD4+ T cells; assay type: in vivo
[7] = test system: OVA-specific Th1 cells; test: Adoptive transfer of in vitro generated antigen-specific Th1 cells; assay type: in vivo; details: 5 µg i.v. or equimolar, 24 h after Th1 transfer, CFSE, n = 6
Procedure: CD4^+ T cells were isolated from DO11.10 mice via MACS-sorting as above and co-cultured 1:3 with APCs (CD4^- CD90^-) (final concentration: 2 x 10^6 cells/ml). Cells were incubated with 1 µg/ml of pOVA, IFN-γ (20 ng/ml) (R&D Systems, McKinley, USA), IL12 (5 ng/ml) (R&D), and anti-IL4-antibody (11B11, produced in house) (5 µg/ml). After 6 days, cells were harvested, and IFN-γ expression was assessed via flow cytometry.
5 × 10^6 purified polarized CFSE-labeled Th1 cells from DO11.10 mice were adoptively transferred i.v. into BALB/c mice. After 24 h, mice were treated by a single i.v. injection of PBS (control), unconjugated pOVA at a dose of 5 µg per mouse or equimolar amounts of PEGylated pOVA. On day 5, splenocytes were isolated, and OVA-specific Th1 cells were identified by an anti-KJ1.26 antibody.
To analyze these questions, in vitro generated OVA-specific Th1 effector cells ( Supplementary Figure 5 ) were transferred into BALB/c mice prior to peptide vaccination. Proliferation and expression of IFN-γ and Foxp3 were assessed on day 5.
Figure 9 pOVA-PEG20 vaccination in presence of pre-existing T effector cells. […] After four days, splenocytes were re-isolated and proliferation, IFN-γ and TNF production as well as Foxp3 expression was assessed using flow cytometry. […] (E, F) Absolute number of antigen-specific IFNγ or Foxp3^+ cells expressed as % of total CD4^+. […]

[8] = test system: Th1-driven DTH footpad swelling; test: Delayed-type hypersensitivity (DTH) model, footpad swelling; assay type: in vivo, BALB/c mice; details: 5 µg i.v. or equimolar; Th1 transfer day 7; footpad challenge pOVA/IFA; 8 days; n = 15
Procedure: pOVA-specific CD4^+ cells were adoptively transferred into BALB/c mice, which were treated i.v. with PBS (control), 5 μg of pOVA or equimolar amounts of pOVA-PEG20 24 h later (tolerization). To induce the effector phase, in vitro generated pOVA-specific Th1 cells were transferred into the recipients on day 7. After 24 h, pOVA in IFA or PBS/IFA were injected into the left or right hind footpad, respectively. Footpad swelling was monitored for 8 consecutive days and expressed as Δ footpad thickness.
To investigate whether pOVA-PEG20 is able to prevent the development of an inflammatory reaction in vivo, we used a DTH model based on the transfer of pre-formed Th1 cells, intra-footpad challenge with pOVA and measurement of footpad swelling for 8 days. […] As discussed below, a clearer superiority of PEGylated peptide over native peptide in tolerance induction was found in a more physiological EAE-model studied in parallel ([35]).
OVA-specific CD4^+ cells were adoptively transferred into BALB/c mice, which were treated i.v. with PBS (control), 5 μg of pOVA or equimolar amounts of pOVA-PEG20 24 h later. On day 7, in vitro generated OVA-specific Th1 cells were transferred into the recipients. […] The difference in footpad thickness after challenge was monitored for eight consecutive days. […]

## ISQAVHAAHAEINEAGR [pOVA]
[1]
  T cell proliferation when vaccinated 3 days prior to T cell transfer (bioavailability): Little T cell proliferation
[2]
  Frequency of OVA-specific (OVA-TCR+ CD4+) cells among host CD4+ splenocytes: not reducing
[3]; 5 µg i.v. (based on peptide amount), 6 days after treatment, single representative plot
  Foxp3+ among OVA-TCR+ CD4+ splenocytes, representative FACS dot plot (Fig. 4A gate number): 24.7%
[3]; 5 µg i.v. or equimolar, pOVA, PEG40, tetramer compared to PBS, PEG20 compared to pOVA
  Frequency of splenic OVA-specific Foxp3+ regulatory T cells (in words): significant increase
[4]
  Increase in Foxp3+ cells upon vaccination in presence of LPS: completely suppressed
[5]
  De novo induction of Foxp3+ Tregs from Treg-depleted CD4+ cells: able to induce Foxp3^+ Tregs in all organs analyzed
[6]; 5 µg i.v. or equimolar, 6 days, spleen, gated on OVA-TCR+ CD4+ cells, n = 5-8
  Mean ratio % TNF+/% Foxp3+ cells (effector cell/Treg ratio): 2.23
[6]; 5 µg in vivo (based on peptide amount), day 7, lower pair of plots
  IL-10 staining of OVA-specific cells after restimulation, representative plot gate number (Suppl. Fig. 3): 0.58
[7]
  Proliferative response of transferred Th1 cells: moderate proliferative response
[8]
  Tolerance in Th1-driven DTH model (Δ footpad thickness): partial tolerance

Source: PMC7581722, “Tolerogenic Immunomodulation by PEGylated Antigenic Peptides” (Frontiers in Immunology, 2020)
